Experimental data as given in patent US20070043091A1, “Kv1.5-BLOCKER FOR THE SELECTIVE INCREASE OF ATRIAL CONTRACTILITY AND TREATMENT OF CARDIAC [sequence]” (SANOFI-AVENTIS DEUTSCHLAND GMBH, priority 2004, published 2007).
“Also recorded” adds a separate entry of the source.

Key:
pig left atrium [1] = experiment: Effect of Kv1.5 blockers on atrial contractility in anesthetized pigs, sinus rhythm; type: in vivo, German Landrace pigs; conditions: 1 mg/kg i.v.
Protocol: (§1) A) Test of the Effect of Kv1.5 Blockers on Atrial Contractility in Anesthetized Pigs
(§2) Material and methods: German Landrace pigs were premedicated by an intramuscular injection of 2.5-3.5 mg/kg each of xylazine, tiletamine and zolazepam in a mixing syringe. The anesthesia was induced with pentobarbital (approx. 30 mg/kg i.v.) and maintained by continuous infusion of pentobarbital (12-17 mg/kg/h).
(§3) After induction of anesthesia and after a tracheotomy, the animals were intubated and ventilated with a mixture of ambient air with 40% oxygen.
(§4) The ventilation rate and volume were governed by regularly measured blood gas and pH levels. The body temperature was continuously recorded and controlled by a heated underlay and/or red light lamp and/or warming of the breathed air to keep it constant (about 37-38° C.).
The following blood vessels of the pigs were exposed and cannulated:
External jugular vein (anesthesia infusion), carotid artery (introduction of a tip manometer catheter in the left ventricle to record the pressure there), lateral saphenous vein (dosage of test substance), epigastrica cranialis superficialis vein (fluid infusion), femoral artery (peripheral blood pressure recording) and femoral vein (introduction of MAP catheter right atrium).
The parameters responsible for the contractility are determined using two ultrasonic sensors on the left atrium (P/N JP 5-2, Triton Technology®) [references 1 and 2]. These two piezoelectric sensors are implanted in the cranio-caudal direction through punctuate incisions at the extreme edge of the atrium. The incisions were each closed with a U stitch (2-0 Vicryl®).
The two ultrasonic sensors were than connected to the evaluation unit. In addition, a pressure-measuring catheter was implanted at the ventral edge of the atrium in order to record the left atrial pressure.
The left atrial systolic shortening (LASS) was determined from the atrial diameter at the start of the active atrial pressure curve and the minimum diameter. Since the atrial contractility depends on the initial extension, the left atrial systolic shortening was divided by the value at the start of active atrial contraction (LASS index). The maximum steepness of the contraction curve was determined by importing the raw data points to Microsoft Excel for calculation of the maximum steepness of the curve. In order to exclude breathing-related variations, at least 10 cardiac cycles were analyzed. This parameter, which likewise indicates an improved contractility, is referred to as LASS steepness.
Recording of the initial values was followed by infusion for 10 minutes of the vehicle which was used later and is composed of 0.5 ml of DMSO, 2.5 ml of PEG and 2.0 ml of glucose G20. […]

[2] = test system: pigs with pericardial air instillation; experiment: Left ventricular ejection (cardiac output) in a model of diastolic dysfunction, pericardial air instillation; type: in vivo; conditions: for Cardiac output, % of the initial value before example 1 / Cardiac output, % of the initial value before instillation / Cardiac output, average: 3 mg/kg i.v. over 30 min
Protocol: B) Improved Left Ventricular Ejection after Kv1.5 Blockers in a Model of Diastolic Dysfunction Methods: Pigs were anesthetized as described in A) and thoracotomized. A flow sensor was attached over the aorta to measure the cardiac output. In a stable hemodynamic situation, air (approx. 30 ml) was instilled into the pericardial using a cannula. The intention of pericardial air instillation is to impede ventricular filling, which eventually leads to a decreased cardiac output (diastolic heart failure). […] The pericardial air instillation leads to a distinct reduction in the cardiac output (table 3).

pig left atrium [3] = experiment: Effect on atrial contractility in anesthetized pigs after one hour of induced atrial fibrillation; type: in vivo, German Landrace pigs
Protocol: as §1, §2, §3
In a further series of experiments, the test substance was administered only after one hour of atrial fibrillation induced by persistent high-frequency stimulation (1200 beats/min) of the right atrium. In this case, the parameters of atrial contractility were recorded before/after the period of fibrillation and after administration of the test substance and compared with those after the vehicle control.
as §4
The following blood vessels of the pigs were exposed and cannulated: […]
The parameters responsible for the contractility are determined using two ultrasonic sensors on the left atrium (P/N JP 5-2, Triton Technology®) [references 1 and 2]. […]
The left atrial systolic shortening (LASS) was determined from the atrial diameter at the start of the active atrial pressure curve and the minimum diameter. […] The maximum steepness of the contraction curve was determined by importing the raw data points to Microsoft Excel for calculation of the maximum steepness of the curve. In order to exclude breathing-related variations, at least 10 cardiac cycles were analyzed. […]

[4] = time not given (start of infusion)

Compound: CCCCS(=O)(=O)Nc1ccccc1C(=O)N[C@H](CC)c1ccc(OC)nc1 (single isomer, unassigned) [Example 5]
- LASS, increase in % (pig left atrium [1]; after vs before administration): 68%
- LASS, absolute values, after administration (pig left atrium [1]; n = 8): 8.25 ± 1.43

Compound: COc1ccc(CC(=O)NCc2ccccc2-c2ccccc2C(=O)NCCc2cccnc2)cc1 [Example 1, N-(2-pyridin-3-ylethyl)-2′-{[2-(4-methoxyphenyl)acetylamino]-methyl}biphenyl-2-carboxamide]
- Cardiac output, % of the initial value before example 1 ([2]; 2′): 102%
- Cardiac output, % of the initial value before instillation ([2]; 2′): 72%
- Cardiac output, average ([2]; 2′): 1.55 L/min
- Cardiac output, % of the initial value before example 1 ([2]; 5′): 104%
- Cardiac output, % of the initial value before instillation ([2]; 5′): 73%
- Cardiac output, average ([2]; 5′): 1.58 L/min
- Cardiac output, % of the initial value before example 1 ([2]; 10′): 111%
- Cardiac output, % of the initial value before instillation ([2]; 10′): 78%
- Cardiac output, average ([2]; 10′): 1.69 L/min
- Cardiac output, % of the initial value before example 1 ([2]; 15′): 117%
- Cardiac output, % of the initial value before instillation ([2]; 15′): 82%
- Cardiac output, average ([2]; 15′): 1.78 L/min
- Cardiac output, % of the initial value before example 1 ([2]; 20′): 121%
- Cardiac output, % of the initial value before instillation ([2]; 20′): 84%
- Cardiac output, average ([2]; 20′): 1.84 L/min
- Cardiac output, % of the initial value before example 1 ([2]; 25′): 123%
- Cardiac output, % of the initial value before instillation ([2]; 25′): 86%
- Cardiac output, average ([2]; 25′): 1.88 L/min
- Cardiac output, % of the initial value before example 1 ([2]; 30′): 125%
- Cardiac output, % of the initial value before instillation ([2]; 30′): 87%
- Cardiac output, average ([2]; 30′): 1.90 L/min
- Cardiac output, % of the initial value before example 1 ([2]; 35′): 120%
- Cardiac output, % of the initial value before instillation ([2]; 35′): 85%
- Cardiac output, average ([2]; 35′): 1.83 L/min
- Cardiac output, % of the initial value before example 1 ([2]; 40′): 117%
- Cardiac output, % of the initial value before instillation ([2]; 40′): 83%
- Cardiac output, average ([2]; 40′): 1.79 L/min
- Cardiac output, % of the initial value before example 1 ([2]; 50′): 116%
- Cardiac output, % of the initial value before instillation ([2]; 50′): 82%
- Cardiac output, average ([2]; 50′): 1.76 L/min
- Cardiac output, % of the initial value before example 1 ([2]; 60′): 111%
- Cardiac output, % of the initial value before instillation ([2]; 60′): 79%
- Cardiac output, average ([2]; 60′): 1.69 L/min
- Cardiac output, % of the initial value before example 1 ([2]; 70′): 108%
- Cardiac output, % of the initial value before instillation ([2]; 70′): 78%
- Cardiac output, average ([2]; 70′): 1.65 L/min
- Cardiac output, % of the initial value before example 1 [2, 4]: 100%
- Cardiac output, % of the initial value before instillation [2, 4]: 71%
- Cardiac output, average [2, 4]: 1.53 L/min
- maximum increase in the reduced cardiac output ([2]; 3 mg/kg infused in 30 min, n=11): 25%
- LACC steepness, absolute value, after administration (pig left atrium [1]): -0.152 ± 0.02 cm/s
- LACC steepness, increase in % (pig left atrium [1]; after vs before administration): +38.2%
- LACC steepness, absolute values (pig left atrium [3]; 1 mg/kg i.v., after 1 hour atrial fibrillation): -0.197 cm/s
- LACC steepness, in % of the initial value (pig left atrium [3]; 1 mg/kg i.v., after 1 hour atrial fibrillation, initial value = before AF): 112.6%
- atrial function / contractility, in words (pig left atrium [3]; after one hour of atrial fibrillation): statistically significant improvement; also recorded: above the base line level
